Source: publication PMC10178848, “Modulating fast skeletal muscle contraction protects skeletal muscle in animal models of Duchenne muscular dystrophy” (The Journal of Clinical Investigation, 2023)

Tested on: GRMD plasma proteins
Type: in vivo, dog
Conditions: EDG-5506 treatment to GRMD baseline

Compound: O=c1ccc(-c2cnc(OCC(F)(F)F)nc2)nn1Cc1cncc(F)c1 [EDG-5506]
- Proteasome activator complex subunit 3 (PSME3): Change from GRMD Baseline (fraction) (Decreased in GRMD): 0.0977 fraction
- Protein S100-A4 (S100A4): Change from GRMD Baseline (fraction) (Decreased in GRMD): 0.1824 fraction
- Protein amnionless (AMN): Change from GRMD Baseline (fraction) (Decreased in GRMD): 0.1425 fraction
- Protein jagged-1 (JAG1): Change from GRMD Baseline (fraction) (Decreased in GRMD): 0.2072 fraction
- Retinol-binding protein 4 (RBP4): Change from GRMD Baseline (fraction) (Decreased in GRMD): 0.0942 fraction
- Roundabout homolog 2 (ROBO2): Change from GRMD Baseline (fraction) (Decreased in GRMD): 0.1874 fraction
- SLIT and NTRK-like protein 5 (SLITRK5): Change from GRMD Baseline (fraction) (Decreased in GRMD): 0.1091 fraction
- SPARC (SPARC): Change from GRMD Baseline (fraction) (Decreased in GRMD): 0.0605 fraction
- Sclerostin (SOST): Change from GRMD Baseline (fraction) (Decreased in GRMD): 0.197 fraction
- Semaphorin-3E (SEMA3E): Change from GRMD Baseline (fraction) (Decreased in GRMD): -0.0152 fraction
- Semaphorin-5A (SEMA5A): Change from GRMD Baseline (fraction) (Decreased in GRMD): 0.0882 fraction
- Serum albumin (ALB): Change from GRMD Baseline (fraction) (Decreased in GRMD): 0.068 fraction
- Sialic acid-binding Ig-like lectin 6 (SIGLEC6): Change from GRMD Baseline (fraction) (Decreased in GRMD): 0.1345 fraction
- Stem cell growth factor-alpha (CLEC11A): Change from GRMD Baseline (fraction) (Decreased in GRMD): -0.071 fraction
- T-lymphocyte surface antigen Ly-9 (LY9): Change from GRMD Baseline (fraction) (Decreased in GRMD): 0.0785 fraction
- TGF-beta receptor type-2 (TGFBR2): Change from GRMD Baseline (fraction) (Decreased in GRMD): -0.0644 fraction
- Tropomyosin alpha-1 chain (TPM1): Change from GRMD Baseline (fraction) (Decreased in GRMD): 0.0152 fraction
- Tumor necrosis factor receptor superfamily member 10B (TNFRSF10B): Change from GRMD Baseline (fraction) (Decreased in GRMD): 0.131 fraction
- Tumor necrosis factor-inducible gene 6 protein (TNFAIP6): Change from GRMD Baseline (fraction) (Decreased in GRMD): 0.2046 fraction
- Wnt inhibitory factor 1 (WIF1): Change from GRMD Baseline (fraction) (Decreased in GRMD): 0.0365 fraction
- Activated Protein C (PROC): Change from GRMD Baseline (fraction) (Increased in GRMD): -0.0147 fraction
- Adiponectin (ADIPOQ): Change from GRMD Baseline (fraction) (Increased in GRMD): -0.1461 fraction
- Alanine aminotransferase 1 (GPT): Change from GRMD Baseline (fraction) (Increased in GRMD): -0.0729 fraction
- Alpha-2-antiplasmin (SERPINF2): Change from GRMD Baseline (fraction) (Increased in GRMD): -0.0328 fraction
- Apolipoprotein D (APOD): Change from GRMD Baseline (fraction) (Increased in GRMD): -0.0675 fraction
- Apolipoprotein L1 (APOL1): Change from GRMD Baseline (fraction) (Increased in GRMD): -0.1374 fraction
- Asialoglycoprotein receptor 1 (ASGR1): Change from GRMD Baseline (fraction) (Increased in GRMD): -0.009 fraction
- Bone morphogenetic protein 1 (BMP1): Change from GRMD Baseline (fraction) (Increased in GRMD): 0.0186 fraction
- Breast cancer anti-estrogen resistance protein 3 (BCAR3): Change from GRMD Baseline (fraction) (Increased in GRMD): -0.0831 fraction
- C5a anaphylatoxin (C5): Change from GRMD Baseline (fraction) (Increased in GRMD): 0.2048 fraction
- C-C motif chemokine 1 (CCL1): Change from GRMD Baseline (fraction) (Increased in GRMD): -0.0825 fraction
- C-C motif chemokine 3 (CCL3): Change from GRMD Baseline (fraction) (Increased in GRMD): -0.078 fraction
- C-X-C motif chemokine 5 (CXCL5): Change from GRMD Baseline (fraction) (Increased in GRMD): -0.0608 fraction
- CD63 antigen (CD63): Change from GRMD Baseline (fraction) (Increased in GRMD): -0.0803 fraction
- CD97 antigen (CD97): Change from GRMD Baseline (fraction) (Increased in GRMD): -0.1124 fraction
- CD109 antigen (CD109): Change from GRMD Baseline (fraction) (Increased in GRMD): -0.0257 fraction
- CD177 antigen (CD177): Change from GRMD Baseline (fraction) (Increased in GRMD): -0.1306 fraction
- Carbonic anhydrase 4 (CA4): Change from GRMD Baseline (fraction) (Increased in GRMD): -0.0922 fraction
- Caspase-3 (CASP3): Change from GRMD Baseline (fraction) (Increased in GRMD): -0.0323 fraction
- Cell adhesion molecule 3 (CADM3): Change from GRMD Baseline (fraction) (Increased in GRMD): -0.0647 fraction
- Change from GRMD Baseline (fraction): 1-phosphatidylinositol 4,5-bisphosphate phosphodiesterase gamma-1 (PLCG1) (Increased in GRMD): -0.0855 fraction
- Change from GRMD Baseline (fraction): 14-3-3 protein family (YWHAB,YWHAE,YWHAG,YWHAH,YWHAQ,YWHAZ,SFN) (Increased in GRMD): -0.1463 fraction
- Change from GRMD Baseline (fraction): 26S proteasome non-ATPase regulatory subunit 7 (PSMD7) (Increased in GRMD): 0.0373 fraction
- Change from GRMD Baseline (fraction): 40S ribosomal protein S7 (RPS7) (Increased in GRMD): -0.3231 fraction
- Change from GRMD Baseline (fraction): A disintegrin and metalloproteinase with thrombospondin motifs 5 (ADAMTS5) (Increased in GRMD): 0.004 fraction
- Change from GRMD Baseline (fraction): A disintegrin and metalloproteinase with thrombospondin motifs 15 (ADAMTS15) (Increased in GRMD): -0.0189 fraction
- Change from GRMD Baseline (fraction): AH receptor-interacting protein (AIP) (Increased in GRMD): -0.1069 fraction
- Change from GRMD Baseline (fraction): AMP Kinase (alpha2beta2gamma1) (PRKAA2 PRKAB2 PRKAG1) (Increased in GRMD): -0.3422 fraction
- Change from GRMD Baseline (fraction): ATP synthase subunit beta, mitochondrial (ATP5B) (Increased in GRMD): 0.3871 fraction
- Change from GRMD Baseline (fraction): ATP-dependent RNA helicase DDX19B (DDX19B) (Increased in GRMD): -0.2236 fraction
- Change from GRMD Baseline (fraction): Acidic leucine-rich nuclear phosphoprotein 32 family member B (ANP32B) (Increased in GRMD): -0.3439 fraction
- Change from GRMD Baseline (fraction): Activin receptor type-1B (ACVR1B) (Increased in GRMD): -0.0675 fraction
- Change from GRMD Baseline (fraction): Adenylate kinase isoenzyme 1 (AK1) (Increased in GRMD): -0.5663 fraction
- Change from GRMD Baseline (fraction): Adenylosuccinate lyase (ADSL) (Increased in GRMD): 0.1427 fraction
- Change from GRMD Baseline (fraction): Afamin (AFM) (Increased in GRMD): -0.1952 fraction
- Change from GRMD Baseline (fraction): Aflatoxin B1 aldehyde reductase member 2 (AKR7A2) (Increased in GRMD): -0.1733 fraction
- Change from GRMD Baseline (fraction): Alcohol dehydrogenase [NADP(+)] (AKR1A1) (Increased in GRMD): -0.2833 fraction
- Change from GRMD Baseline (fraction): Aminoacylase-1 (ACY1) (Increased in GRMD): -0.4238 fraction
- Change from GRMD Baseline (fraction): Amphoterin-induced protein 2 (AMIGO2) (Increased in GRMD): 0.0688 fraction
